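Method: 48-hour compound exposure of cells in 96-well plates, five concentrations, linear interpolation of endpoints. At the TGI there is no net growth.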
What was measured:
Assay in all cases: NCI anticancer screen, dose series, 48 h
SR leukemia = system: SR leukemia
UACC-62 melanoma = system: UACC-62 melanoma
MDA-MB-435 = system: MDA-MB-435
SF-268 CNS = system: SF-268 CNS
T-47D breast = system: T-47D breast
786-0 renal = system: 786-0 renal
NCI-H522 lung = system: NCI-H522 lung
NCI-H460 lung = system: NCI-H460 lung
EKVX NSCLC = system: EKVX NSCLC
HOP-92 NSCLC = system: HOP-92 NSCLC
HT29 colon = system: HT29 colon
MDA-N = system: MDA-N
KM12 colon = system: KM12 colon
CCRF-CEM leukemia = system: CCRF-CEM leukemia
RXF 393 renal = system: RXF 393 renal
OVCAR-3 ovarian = system: OVCAR-3 ovarian
NCI-H23 lung = system: NCI-H23 lung
NCI-H226 lung = system: NCI-H226 lung
SF-539 CNS = system: SF-539 CNS
TK-10 renal = system: TK-10 renal
SK-MEL-28 melanoma = system: SK-MEL-28 melanoma
RPMI-8226 leukemia = system: RPMI-8226 leukemia
K-562 leukemia = system: K-562 leukemia
PC-3 prostate = system: PC-3 prostate
UACC-257 melanoma = system: UACC-257 melanoma
SN12C renal = system: SN12C renal
HL-60(TB) leukemia = system: HL-60(TB) leukemia
MCF7 breast = system: MCF7 breast
IGROV1 ovarian = system: IGROV1 ovarian
M14 melanoma = system: M14 melanoma
COLO 205 colon = system: COLO 205 colon
OVCAR-8 ovarian = system: OVCAR-8 ovarian
HS 578T breast = system: HS 578T breast
UO-31 renal = system: UO-31 renal
MALME-3M melanoma = system: MALME-3M melanoma
OVCAR-5 ovarian = system: OVCAR-5 ovarian
SNB-19 CNS = system: SNB-19 CNS
OVCAR-4 ovarian = system: OVCAR-4 ovarian
U251 CNS = system: U251 CNS
SW-620 colon = system: SW-620 colon
HCT-15 colon = system: HCT-15 colon
HCC-2998 colon = system: HCC-2998 colon
CAKI-1 renal = system: CAKI-1 renal
SNB-75 CNS = system: SNB-75 CNS
ACHN renal = system: ACHN renal
HOP-62 NSCLC = system: HOP-62 NSCLC
SK-OV-3 ovarian = system: SK-OV-3 ovarian
DU-145 prostate = system: DU-145 prostate
A549 NSCLC = system: A549 NSCLC
SK-MEL-5 melanoma = system: SK-MEL-5 melanoma
SK-MEL-2 melanoma = system: SK-MEL-2 melanoma
A498 renal = system: A498 renal
LOX IMVI melanoma = system: LOX IMVI melanoma
MOLT-4 leukemia = system: MOLT-4 leukemia
SF-295 CNS = system: SF-295 CNS
HCT-116 colon = system: HCT-116 colon
MDA-MB-231 breast = system: MDA-MB-231 breast
NCI/ADR-RES ovarian = system: NCI/ADR-RES ovarian
BT-549 breast = system: BT-549 breast

`COc1ccc(Cc2c(-c3ccc(C)cc3)n[nH]c(=O)c2C2C(=O)N(c3ccccc3)N=C2c2ccccc2)cc1` (stereo not given) was tested, and the TGI (SR leukemia) was greater than 79.3 µM, the TGI (UACC-62 melanoma) was 40.4 µM and the TGI (MDA-MB-435) was 45 µM. The TGI (SF-268 CNS) was greater than 100 µM, the TGI (T-47D breast) was greater than 100 µM and the TGI (786-0 renal) was greater than 100 µM. It also gave a TGI (NCI-H522 lung) greater than 100 µM, a TGI (NCI-H460 lung) greater than 89.3 µM and a TGI (EKVX NSCLC) of 83.1 µM. The TGI (HOP-92 NSCLC) was 75.3 µM, the TGI (HT29 colon) was greater than 100 µM and the TGI (MDA-N) was 58.3 µM. The TGI (KM12 colon) was 57.1 µM, the TGI (CCRF-CEM leukemia) was greater than 78.8 µM and the TGI (RXF 393 renal) was 57 µM. The TGI (OVCAR-3 ovarian) was 45.8 µM, the TGI (NCI-H23 lung) was 72.1 µM and the TGI (NCI-H226 lung) was 81.9 µM. It also gave a TGI (SF-539 CNS) of 56.1 µM, a TGI (TK-10 renal) of 87.2 µM and a TGI (SK-MEL-28 melanoma) greater than 90.3 µM. It also gave a TGI (RPMI-8226 leukemia) of 80.3 µM, a TGI (K-562 leukemia) greater than 76.6 µM and a TGI (PC-3 prostate) greater than 91.8 µM. The TGI (UACC-257 melanoma) was 81.2 µM, the TGI (SN12C renal) was greater than 95.6 µM and the TGI (HL-60(TB) leukemia) was 67.6 µM. For the same compound, the TGI (MCF7 breast) was greater than 91.3 µM, the TGI (IGROV1 ovarian) was 85.1 µM and the TGI (M14 melanoma) was 81.8 µM. For the same compound, the TGI (COLO 205 colon) was 40.3 µM, the TGI (OVCAR-8 ovarian) was greater than 96.6 µM and the TGI (HS 578T breast) was 82.9 µM. For the same compound, the TGI (UO-31 renal) was greater than 100 µM, the TGI (MALME-3M melanoma) was 65.2 µM and the TGI (OVCAR-5 ovarian) was greater than 95.7 µM. It also gave a TGI (SNB-19 CNS) greater than 100 µM, a TGI (OVCAR-4 ovarian) greater than 100 µM and a TGI (U251 CNS) greater than 100 µM. For the same compound, the TGI (SW-620 colon) was greater than 100 µM, the TGI (HCT-15 colon) was greater than 100 µM and the TGI (HCC-2998 colon) was 79.5 µM. It also gave a TGI (CAKI-1 renal) greater than 88.6 µM, a TGI (SNB-75 CNS) of 81.3 µM and a TGI (ACHN renal) greater than 100 µM. For the same compound, the TGI (HOP-62 NSCLC) was greater than 100 µM, the TGI (SK-OV-3 ovarian) was greater than 100 µM and the TGI (DU-145 prostate) was greater than 100 µM. It also gave a TGI (A549 NSCLC) of 84.3 µM, a TGI (SK-MEL-5 melanoma) of 38.9 µM and a TGI (SK-MEL-2 melanoma) of 52.5 µM. For the same compound, the TGI (A498 renal) was 65.4 µM, the TGI (LOX IMVI melanoma) was 46.6 µM and the TGI (MOLT-4 leukemia) was greater than 67.7 µM. For the same compound, the TGI (SF-295 CNS) was 60.8 µM, the TGI (HCT-116 colon) was 46.4 µM and the TGI (MDA-MB-231 breast) was greater than 90.4 µM. It also gave a TGI (NCI/ADR-RES ovarian) of 58 µM.
`NC(=S)C1=C(N)Oc2c(c(=O)oc3ccccc23)C1c1ccc(Br)cc1` (stereo not given) was tested, and the TGI (SR leukemia) was 63.2 µM, the TGI (UACC-62 melanoma) was greater than 100 µM and the TGI (MDA-MB-435) was greater than 100 µM. It also gave a TGI (SF-268 CNS) greater than 100 µM, a TGI (786-0 renal) greater than 100 µM and a TGI (NCI-H522 lung) greater than 100 µM. It also gave a TGI (NCI-H460 lung) greater than 100 µM, a TGI (EKVX NSCLC) greater than 100 µM and a TGI (HOP-92 NSCLC) greater than 100 µM. For the same compound, the TGI (HT29 colon) was greater than 100 µM, the TGI (MDA-N) was greater than 100 µM and the TGI (BT-549 breast) was greater than 100 µM. For the same compound, the TGI (CCRF-CEM leukemia) was greater than 100 µM, the TGI (OVCAR-3 ovarian) was greater than 100 µM and the TGI (NCI-H23 lung) was greater than 100 µM. The TGI (SF-539 CNS) was greater than 100 µM, the TGI (TK-10 renal) was greater than 100 µM and the TGI (SK-MEL-28 melanoma) was greater than 100 µM. The TGI (K-562 leukemia) was greater than 100 µM, the TGI (PC-3 prostate) was greater than 100 µM and the TGI (UACC-257 melanoma) was greater than 100 µM. The TGI (SN12C renal) was greater than 100 µM, the TGI (HL-60(TB) leukemia) was greater than 100 µM and the TGI (MCF7 breast) was greater than 100 µM. For the same compound, the TGI (IGROV1 ovarian) was greater than 100 µM, the TGI (M14 melanoma) was greater than 100 µM and the TGI (COLO 205 colon) was greater than 100 µM. For the same compound, the TGI (OVCAR-8 ovarian) was greater than 100 µM, the TGI (UO-31 renal) was greater than 100 µM and the TGI (MALME-3M melanoma) was greater than 100 µM. For the same compound, the TGI (OVCAR-5 ovarian) was greater than 100 µM, the TGI (SNB-19 CNS) was greater than 100 µM and the TGI (OVCAR-4 ovarian) was greater than 100 µM. It also gave a TGI (U251 CNS) greater than 100 µM, a TGI (SW-620 colon) greater than 100 µM and a TGI (HCT-15 colon) greater than 100 µM. For the same compound, the TGI (HCC-2998 colon) was greater than 100 µM, the TGI (CAKI-1 renal) was greater than 100 µM and the TGI (SNB-75 CNS) was greater than 100 µM. The TGI (ACHN renal) was greater than 100 µM, the TGI (HOP-62 NSCLC) was greater than 100 µM and the TGI (SK-OV-3 ovarian) was greater than 100 µM. For the same compound, the TGI (DU-145 prostate) was greater than 100 µM, the TGI (A549 NSCLC) was greater than 100 µM and the TGI (SK-MEL-5 melanoma) was greater than 100 µM. The TGI (SK-MEL-2 melanoma) was greater than 100 µM, the TGI (A498 renal) was greater than 100 µM and the TGI (LOX IMVI melanoma) was greater than 100 µM. It also gave a TGI (SF-295 CNS) greater than 100 µM, a TGI (HCT-116 colon) greater than 100 µM and a TGI (MDA-MB-231 breast) greater than 100 µM. For the same compound, the TGI (NCI/ADR-RES ovarian) was greater than 100 µM.

Source: PubChem BioAssay (NCI)
